Values of other authors, collected in patent US6746695B1, “Pharmaceutical preparations of bioactive substances extracted from natural sources” (Armadillo Pharmaceuticals, Inc., priority 1998, dated 2004).
Read-outs that look alike come from different tables or passages of the source.

What was measured:
prostoglandin synthetase = molecular target: T1, prostoglandin synthetase (Bos taurus, UniProt O62664); details: enzyme prepared from bovine seminal vesicles; compared with aspirin
T1 construct: prostoglandin synthetase prepared from bovine seminal vesicles; from tissue; host or cells: bovine seminal vesicles
T1 sequence (O62664 25-600): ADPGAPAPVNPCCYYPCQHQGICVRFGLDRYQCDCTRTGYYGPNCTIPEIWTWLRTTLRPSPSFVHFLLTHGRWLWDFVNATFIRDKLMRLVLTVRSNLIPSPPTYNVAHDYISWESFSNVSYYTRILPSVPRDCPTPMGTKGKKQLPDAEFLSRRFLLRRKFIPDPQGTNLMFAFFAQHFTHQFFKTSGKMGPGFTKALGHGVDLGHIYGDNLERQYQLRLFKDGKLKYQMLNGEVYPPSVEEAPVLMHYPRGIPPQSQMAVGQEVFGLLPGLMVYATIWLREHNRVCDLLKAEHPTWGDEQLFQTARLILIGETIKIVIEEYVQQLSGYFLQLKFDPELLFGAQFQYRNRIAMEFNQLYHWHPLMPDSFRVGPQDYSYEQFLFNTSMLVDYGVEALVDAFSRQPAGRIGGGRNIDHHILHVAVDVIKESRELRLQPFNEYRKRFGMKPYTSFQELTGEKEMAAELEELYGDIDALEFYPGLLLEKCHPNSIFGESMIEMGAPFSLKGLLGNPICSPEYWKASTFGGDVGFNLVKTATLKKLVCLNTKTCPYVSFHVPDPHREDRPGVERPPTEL

[1] = rats
[2] = mice
[3] = Dogs
[4] = chickens

SMILES	potency as inhibitor of prostoglandin synthetase relative to aspirin (prostoglandin synthetase)	food intake [1]	food intake [2]	weight reduction [3]	food intake [4]
COc1ccc2c(c1OC)-c1cc(ccc1O)/C=C\C(=O)O[C@H]1C[C@@H]3CCCCC3[C@H]2C1 (stereo partly drawn) [nesodine]	more than twice as potent as aspirin	–	–	–	–
CO[C@H]1[C@@H](OC)C[C@@H](O[C@@H]2O[C@H](CO)[C@@H](O)[C@H](O)[C@H]2O)/C(=C\C#N)[C@@H]1O [Simmondsin]	–	reducing food intake	reducing food intake	useful weight reduction agent	reducing food intake
COc1cc2c(cc1OC)[C@@H]1C[C@H](C[C@H]3CCCCN31)OC(=O)/C=C\c1ccc(O)c-2c1 [cryogenine]	more than twice as potent as aspirin	–	–	–	–
